US12410160B2 (Gilead Sciences, Inc., priority 2021, dated 2025)

Assays:
human KHK-C = human KHK-C (Homo sapiens (Human), UniProt P50053); assay: KHK Biochemical Assay (IC50), ADP-Glo, KHK-C; details: average of at least two separate assays
In short: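 Luminescent ADP-Glo read-out of ADP made by His-tagged KHK (BL21 (DE3) expression, Ni-NTA). Enzyme and compound sat together 30 min before ATP/fructose addition, then reacted 4 h at RT in Hepes pH 7.4 buffer with KCl, MgCl2, Triton-X. Quench 1 h, detection 1 h.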

[1] = biological target: KHK-C expressed in NRK-52E cells (Homo sapiens (Human), UniProt P50053); assay: KHK-C Cell-based Assay (EC50), NRK CTG, fructose-mediated ATP-depletion
KHK-C expressed in NRK-52E cells, sequence (P50053 whole entry): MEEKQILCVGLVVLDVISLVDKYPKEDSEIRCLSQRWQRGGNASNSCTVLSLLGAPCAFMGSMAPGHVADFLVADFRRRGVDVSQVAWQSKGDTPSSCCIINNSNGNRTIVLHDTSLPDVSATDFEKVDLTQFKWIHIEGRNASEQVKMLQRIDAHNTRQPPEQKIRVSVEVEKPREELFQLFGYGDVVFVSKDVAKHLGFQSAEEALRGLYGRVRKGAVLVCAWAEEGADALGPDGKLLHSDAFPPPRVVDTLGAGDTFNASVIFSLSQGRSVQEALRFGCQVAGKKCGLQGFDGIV

human KHK-C, sequence (P50053 whole entry): as above

IC50 (human KHK-C)	EC50 [1]	SMILES
48.6 nM	238 nM	C[C@H]1[C@H](O)CN1c1nc(-c2ccc3c(c2)OCCNS3(=O)=O)c2c(n1)C(F)(F)CC2 [Example 500]
212 nM	597 nM	CC1CCC1c1nc2c(c(-c3ccc(C(N)=O)cc3)n1)CCC2 (stereo not drawn) [Example 501, 4-(2-(2-methylcyclobutyl)-6,7-dihydro-5H-cyclopenta[d]pyrimidin-4-yl)benzamide]
768 nM	2000 nM	CC1(c2nc3c(c(-c4ccc(C(N)=O)cc4)n2)CCC3)CCC1 [Example 502, 4-(2-(1-methylcyclobutyl)-6,7-dihydro-5H-cyclopenta[d]pyrimidin-4-yl)benzamide]
5 nM	26.7 nM	C[C@H]1[C@H](O)CN1c1nc(-c2ccc(C3(N)COC3)c(F)c2)c2c(n1)C(F)(F)CC2 [Example 503, (2S,3R)-1-(4-(4-(3-aminooxetan-3-yl)-3-fluorophenyl)-7,7-difluoro-6,7-dihydro-5H-cyclopenta[d]pyrimidin-2-yl)-2-methylazetidin-3-ol]
2.4 nM	11.9 nM	Cc1cc(-c2nc(N3C[C@@H](O)[C@@H]3C)nc3c2CCC3(F)F)ccc1C1(N)COC1 [Example 505, (2S,3R)-1-(4-(4-(3-aminooxetan-3-yl)-3-methylphenyl)-7,7-difluoro-6,7-dihydro-5H-cyclopenta[d]pyrimidin-2-yl)-2-methylazetidin-3-ol]
> 5000 nM	> 5000 nM	C[C@H]1[C@H](O)CN1c1nc(-c2ccc(C3(N)COC3)nc2)c2c(n1)C(F)(F)CC2 [Example 506, (2S,3R)-1-(4-(6-(3-aminooxetan-3-yl)pyridin-3-yl)-7,7-difluoro-6,7-dihydro-5H-cyclopenta[d]pyrimidin-2-yl)-2-methylazetidin-3-ol]
13.6 nM	125 nM	C[C@H]1[C@H](O)CN1c1nc(-c2ccc3c(c2)C(=O)N(C)CC3)c2c(n1)C(F)(F)CC2 [Example 600, 7-(7,7-difluoro-2-((2S,3R)-3-hydroxy-2-methylazetidin-1-yl)-6,7-dihydro-5H-cyclopenta[d]pyrimidin-4-yl)-2-methyl-3,4-dihydroisoquinolin-1(2H)-one]
95.1 nM	> 5000 nM	C[C@H]1[C@H](O)CN1c1nc2c(c(-c3ccc4c(c3)S(=O)(=O)CNC4=O)n1)CCC2 [Example 601, 7-(2-((2S,3R)-3-hydroxy-2-methylazetidin-1-yl)-6,7-dihydro-5H-cyclopenta[d]pyrimidin-4-yl)-2,3-dihydro-4H-benzo[e][1,3]thiazin-4-one 1,1-dioxide]
96.8 nM	150 nM	C[C@H]1CCN1c1nc2c(c(-c3ccc4c(c3)CN(S(=O)(=O)CCO)CC4)n1)CCC2 [Example 605]
80.7 nM	610 nM	C[C@H]1[C@H](O)CN1c1nc2c(c(-c3cccc(CNS(=O)(=O)C4CC4)c3)n1)CCC2 [Example 610]

More lines, now with the values behind:

SMILES	IC50 (human KHK-C)	EC50 [1]
C[C@H]1CCN1c1nc2c(c(-c3ccncn3)n1)CCC2 [Example 393, 2-[(2S)-2-methylazetidin-1-yl]-4-pyrimidin-4-yl-6,7-dihydro-5H-cyclopenta[d]pyrimidine]	219 nM	403 nM
C[C@H]1CCN1c1nc2c(c(-c3nccn3C)n1)CCC2 [Example 394, 2-[(2S)-2-methylazetidin-1-yl]-4-(1-methylimidazol-2-yl)-6,7-dihydro-5H-cyclopenta[d]pyrimidine]	172 nM	785 nM
C[C@H]1CCN1c1nc2c(c(-c3nc4ccc(C(=O)O)cc4n3C)n1)CCC2 [Example 395, 3-methyl-2-[2-[(2S)-2-methylazetidin-1-yl]-6,7-dihydro-5H-cyclopenta[d]pyrimidin-4-yl]benzimidazole-5-carboxylic acid]	329 nM	> 5000 nM
C[C@H]1CCN1c1nc2c(c(-c3cccc(C4(O)CS(=O)(=O)C4)c3)n1)CCC2 [Example 397, (S)-3-hydroxy-3-(3-(2-(2-methylazetidin-1-yl)-6,7-dihydro-5H-cyclopenta[d]pyrimidin-4-yl)phenyl)thietane 1,1-dioxide]	32.8 nM	166 nM
CC12CCC(CC1)N2c1nc2c(c(-c3ccc(C(N)=O)cc3)n1)CCC2 [Example 398, 4-(2-(-1-methyl-7-azabicyclo[2.2.1]heptan-7-yl)-6,7-dihydro-5H-cyclopenta[d]pyrimidin-4-yl)benzamide]	> 5000 nM	> 5000 nM
C[C@H]1CCN1c1nc2c(c(-c3cccc(S(C)(=O)=O)c3)n1)CCC2 [Example 399, (S)-2-(2-methylazetidin-1-yl)-4-(3-(methylsulfonyl)phenyl)-6,7-dihydro-5H-cyclopenta[d]pyrimidine]	74.3 nM	138 nM
NC(=O)c1ccc(-c2nc(N3CCCC34CC4)nc3c2CCC3)cc1 [Example 402, 4-(2-(4-azaspiro[2.4]heptan-4-yl)-6,7-dihydro-5H-cyclopenta[d]pyrimidin-4-yl)benzamide]	3760 nM	1590 nM
C[C@H]1CCCN1c1nc2c(c(-c3ccc(C(N)=O)cc3)n1)CCC2 [Example 403, (S)-4-(2-(2-methylpyrrolidin-1-yl)-6,7-dihydro-5H-cyclopenta[d]pyrimidin-4-yl)benzamide]	218 nM	242 nM
C[C@@H]1CCCN1c1nc2c(c(-c3ccc(C(N)=O)cc3)n1)CCC2 [Example 404, (R)-4-(2-(2-methylpyrrolidin-1-yl)-6,7-dihydro-5H-cyclopenta[d]pyrimidin-4-yl)benzamide]	> 5000 nM	> 5000 nM
NC(=O)c1ccc(-c2nc(N3CCC3)nc3c2CCC3)cc1 [Example 405, 4-(2-(azetidin-1-yl)-6,7-dihydro-5H-cyclopenta[d]pyrimidin-4-yl)benzamide]	2470 nM	4770 nM
CSCC1CCN1c1nc2c(c(-c3ccc(C(N)=O)cc3)n1)CCC2 (stereo not drawn) [Example 415, 4-(2-(2-((methylthio)methyl)azetidin-1-yl)-6,7-dihydro-5H-cyclopenta[d]pyrimidin-4-yl)benzamide]	> 5000 nM	> 5000 nM
NC(=O)c1ccc(-c2nc(N3CCCC3=O)nc3c2CCC3)cc1 [Example 418, 4-(2-(2-oxopyrrolidin-1-yl)-6,7-dihydro-5H-cyclopenta[d]pyrimidin-4-yl)benzamide]	> 5000 nM	> 5000 nM
C[C@H]1CCN1c1nc2c(c(-c3cccc(C4=CS(=O)(=O)C4)c3)n1)CCC2 [Example 420, (S)-3-(3-(2-(2-methylazetidin-1-yl)-6,7-dihydro-5H-cyclopenta[d]pyrimidin-4-yl)phenyl)-2H-thiete 1,1-dioxide]	61.8 nM	382 nM
C[C@H]1CCN1c1nc2c(c(-c3cccc(C4CS(=O)(=O)C4)c3)n1)CCC2 [Example 421, (S)-3-(3-(2-(2-methylazetidin-1-yl)-6,7-dihydro-5H-cyclopenta[d]pyrimidin-4-yl)phenyl)thietane 1,1-dioxide]	67 nM	297 nM
C[C@H]1CCN1c1nc2c(c(-c3ccc4c(c3)CS(=O)(=O)C4)n1)CCC2 [Example 422, (S)-5-(2-(2-methylazetidin-1-yl)-6,7-dihydro-5H-cyclopenta[d]pyrimidin-4-yl)-1,3-dihydrobenzo[c]thiophene 2,2-dioxide]	95 nM	240 nM
C[C@H]1CCN1c1nc2c(c(-c3cccc([C@@H]4[C@@H](C(=O)O)C4(C)C)c3)n1)CCC2 [Example 435, (1R,3R)-2,2-dimethyl-3-(3-(2-((S)-2-methylazetidin-1-yl)-6,7-dihydro-5H-cyclopenta[d]pyrimidin-4-yl)phenyl)cyclopropane-1-carboxylic acid]	5.4 nM	78.4 nM
CC(C)(O)[C@H]1CCN1c1nc2c(c(-c3ccc(C(N)=O)cc3)n1)CCC2 [Example 436, 4-[2-[(2R)-2-(1-hydroxy-1-methyl-ethyl)azetidin-1-yl]-6,7-dihydro-5H-cyclopenta[d]pyrimidin-4-yl]benzamide]	2730 nM	2940 nM
CC(C)C[C@H]1C(F)CN1c1nc2c(c(-c3ccc(C(N)=O)cc3)n1)CCC2 (stereo partly drawn) [Example 437, 4-[2-[(2S)-3-fluoro-2-isobutyl-azetidin-1-yl]-6,7-dihydro-5H-cyclopenta[d]pyrimidin-4-yl]benzamide]	> 5000 nM	> 5000 nM
C[C@@H](OCc1ccccc1)[C@H]1C(O)CN1c1nc2c(c(-c3ccc(C(N)=O)cc3)n1)CCC2 (stereo partly drawn) [Example 438, 4-[2-[(2R)-2-[(1R)-1-benzyloxyethyl]-3-hydroxy-azetidin-1-yl]-6,7-dihydro-5H-cyclopenta[d]pyrimidin-4-yl]benzamide]	> 5000 nM	> 5000 nM
NC(=O)c1ccc(-c2nc(N3CC[C@@H]3C(=O)O)nc3c2CCC3)cc1 [Example 442, (2R)-1-[4-(4-carbamoylphenyl)-6,7-dihydro-5H-cyclopenta[d]pyrimidin-2-yl]azetidine-2-carboxylic acid]	1580 nM	2730 nM
C[C@H]1CCN1c1nc2c(c(-c3cc(Cl)cc([C@H]4C[C@@H]4C(=O)O)c3)n1)CCC2 [Example 443, (1S,2S)-2-[3-chloro-5-[2-[(2S)-2-methylazetidin-1-yl]-6,7-dihydro-5H-cyclopenta[d]pyrimidin-4-yl]phenyl]cyclopropanecarboxylic acid]	4.2 nM	53.8 nM
C[C@H]1[C@H](O)CN1c1nc2c(c(-c3ccc(C(N)=O)cc3)n1)CC(F)(F)CC2 [Example 444, 4-(6,6-difluoro-2-((2S,3R)-3-hydroxy-2-methylazetidin-1-yl)-5,6,7,8-tetrahydroquinazolin-4-yl)benzamide]	> 5000 nM	> 5000 nM
CS(=O)(=O)NC[C@H]1CCN1c1nc2c(c(-c3ccc(C(N)=O)cc3)n1)CCC2 [Example 457, 4-[2-[(2R)-2-(methanesulfonamidomethyl)azetidin-1-yl]-6,7-dihydro-5H-cyclopenta[d]pyrimidin-4-yl]benzamide]	954 nM	> 5000 nM
